Legend:
SCA 1 patient = assay: Case study, Spinocerebellar Ataxia (SCA) 1; format: in vivo, human
From the text: The patient in this case study was a person who was genetically diagnosed with Spinocerebellar Ataxia (SCA) 1. Before treatment, the patient had severe problems with speaking and swallowing, tremor of both arms, spasticity and moderate ataxia of stance and gait. The patient also had problems sleeping.

[1] = tested on: AB variant of Tay-Sachs disease patient fibroblasts; assay: Glycosphingolipid (GSL) levels by HPLC, AB variant fibroblasts; format: cell-based, human; conditions: 1 mM for 6 days

SMILES: CC(=O)NC(CC(C)C)C(=O)O (racemic) [acetyl-DL-leucine]
- Symptoms (SCA 1 patient; 5 g/day, three weeks on medication): all symptoms significantly improved
- Side-effects (SCA 1 patient; over two years on the same dosage): without any side-effects
- Intensity of signs and symptoms after stopping (SCA 1 patient; two weeks after medication was stopped): the same as before therapy
- GSL levels [1]: trend towards decreased GSL levels
